Laboratory results from patent US8629148B2, “Substituted oxindole-derivatives and the use thereof for the treatment of vasopressin-dependent illnesses” (AbbVie Deutschland GmbH & Co. KG, priority 2007, dated 2014).

What was measured:
[1] = molecular target: T1, human vasopressin V1b receptor (Homo sapiens, UniProt P47901); assay: Vasopressin V1b receptor binding assay (3H-AVP displacement, CHO-K1 membranes)
T1 construct: expressed in transfected cells; host or cells: CHO-K1 (cell line hV1b_3H2_CHO), membranes
T1 sequence (P47901 1-424): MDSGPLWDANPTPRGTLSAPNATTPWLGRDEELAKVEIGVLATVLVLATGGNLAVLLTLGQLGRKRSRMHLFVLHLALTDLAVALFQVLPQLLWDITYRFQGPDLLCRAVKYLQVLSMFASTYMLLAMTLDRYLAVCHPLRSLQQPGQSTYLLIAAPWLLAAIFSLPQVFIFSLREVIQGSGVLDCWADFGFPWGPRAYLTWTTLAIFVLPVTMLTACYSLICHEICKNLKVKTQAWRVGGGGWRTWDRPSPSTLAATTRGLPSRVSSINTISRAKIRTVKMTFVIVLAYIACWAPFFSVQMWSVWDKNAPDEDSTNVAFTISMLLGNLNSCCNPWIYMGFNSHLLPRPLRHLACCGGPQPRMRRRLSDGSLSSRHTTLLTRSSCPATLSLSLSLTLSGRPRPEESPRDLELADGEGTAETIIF
Protocol: 1. Vasopressin V1b Receptor Binding Assay:
The substance concentration was further diluted 1:5 in the assay mixture (2% DMSO in the mixture).
All determinations were carried out as triplicate determinations.

[2] = molecular target: T2, recombinant human oxytocin receptors (Homo sapiens, UniProt P30559); assay: Oxytocin receptor binding assay (3H-oxytocin, HEK-293 cells); conditions: selectivity quotient, human OT vs human V1b
T2 construct: expressed in transfected cells; host or cells: HEK-293, transient expression; lysed and homogenized cells
T2 sequence (P30559 1-389): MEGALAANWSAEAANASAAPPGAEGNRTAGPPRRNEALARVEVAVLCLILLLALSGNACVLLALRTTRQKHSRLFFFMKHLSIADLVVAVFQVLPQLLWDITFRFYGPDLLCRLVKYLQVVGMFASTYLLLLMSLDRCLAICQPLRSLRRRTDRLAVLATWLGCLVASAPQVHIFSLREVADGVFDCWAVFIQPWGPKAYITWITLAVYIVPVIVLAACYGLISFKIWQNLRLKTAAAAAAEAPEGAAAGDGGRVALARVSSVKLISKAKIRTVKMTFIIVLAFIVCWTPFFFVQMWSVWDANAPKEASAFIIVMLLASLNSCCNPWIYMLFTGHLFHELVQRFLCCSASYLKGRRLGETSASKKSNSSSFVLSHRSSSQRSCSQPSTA
Protocol: The residue was taken up in ice-cold lysis buffer (50 mM Tris-HCl, 10% glycerol, pH 7.4 and Roche complete protease inhibitor) and subjected to an osmotic shock at 4° C. for 20 minutes. The lyzed cells were then centrifuged at 750×g at 4° C. for 20 minutes, the residue was taken up in incubation buffer, and aliquots of 10^7 cells/ml were prepared. The aliquots were frozen at −80° C. until used.
On the day of the experiment, the cells were thawed, diluted with incubation buffer and homogenized using a Multipette Combitip (Eppendorf, Hamburg). […] Triplicate determinations were set up. Bound and free radioligand were separated by filtration under vacuum with Whatman GF/B glass fiber filters with the aid of a Skatron cell harvester 7000. The bound radioactivity was determined by liquid scintillation measurement in a Tricarb Beta counter, model 2000 or 2200CA (Packard).

[3] = molecular target: human vasopressin V1a receptor (Homo sapiens, UniProt P37288); assay: Vasopressin V1a receptor binding assay (125I-AVP displacement, CHO-K1 membranes); conditions: selectivity quotient, human V1a vs human V1b
human vasopressin V1a receptor, sequence (P37288 whole entry): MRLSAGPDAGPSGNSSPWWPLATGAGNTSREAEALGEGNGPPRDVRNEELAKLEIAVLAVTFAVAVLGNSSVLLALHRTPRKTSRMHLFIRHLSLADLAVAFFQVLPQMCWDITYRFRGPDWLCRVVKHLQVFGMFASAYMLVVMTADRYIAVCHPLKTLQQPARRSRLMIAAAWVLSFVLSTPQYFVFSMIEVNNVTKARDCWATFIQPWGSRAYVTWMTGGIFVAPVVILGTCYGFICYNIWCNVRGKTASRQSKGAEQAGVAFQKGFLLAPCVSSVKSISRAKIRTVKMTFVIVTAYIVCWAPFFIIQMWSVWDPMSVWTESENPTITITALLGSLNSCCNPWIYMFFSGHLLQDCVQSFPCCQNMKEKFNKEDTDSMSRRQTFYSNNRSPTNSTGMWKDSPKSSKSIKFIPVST

SMILES	Ki [1]	Ki(h-OT)/Ki(h-V1b)* [2]	Ki(h-V1a)/Ki(h-V1b)* [3]
CCOc1ncccc1C1(NCc2ccc(N3CCN(C)CC3)cc2)C(=O)N(S(=O)(=O)c2ccc(OC)cc2)c2cc(Cl)c(F)cc21 (stereo not drawn) [Example 13, 6-Chloro-3-(2-ethoxypyridin-3-yl)-5-fluoro-1-(4-methoxyphenylsulfonyl)-3-[4-(4-methylpiperazin-1-yl)benzylamino]-1,3-dihydroindol-2-one]	10 to 100 nM	++ (25-75)	+ (10-<25)
CCOc1ncccc1C1(NCc2ccc(N3CCN(CC)CC3)cc2)C(=O)N(S(=O)(=O)c2ccc(OC)cc2)c2ccc(C#N)cc21 (stereo not drawn) [Example 31, 3-(2-Ethoxypyridin-3-yl)-3-[4-(4-ethylpiperazin-1-yl)benzylamino]-1-(4-methoxy-phenylsulfonyl)-2-oxo-2,3-dihydro-1H-indole-5-carbonitrile]	< 1 nM	+++ (>75)	+++ (>75)
CCOc1ncccc1C1(NCc2cccc(N3CCN(C)CC3)c2)C(=O)N(S(=O)(=O)c2ccccc2OC)c2ccc(I)cc21 (stereo not drawn) [Example 41, 3-(2-Ethoxypyridin-3-yl)-5-iodo-1-(2-methoxyphenylsulfonyl)-3-[3-(4-methylpiperazin-1-yl)-benzylamino]-1,3-dihydroindol-2-one]	1 to 10 nM	++ (25-75)	++ (25-75)
CCOc1ncccc1C1(NCc2ccc(N3CCNCC3)cc2)C(=O)N(S(=O)(=O)c2ccc(OC)cc2)c2cc(F)c(C#N)cc21 (stereo not drawn) [Example 34, 3-(2-Ethoxypyridin-3-yl)-6-fluoro-1-(4-methoxyphenylsulfonyl)-2-oxo-3-(4-piperazin-1-yl-benzylamino)-2,3-dihydro-1H-indole-5-carbonitrile]	1 to 10 nM	+++ (>75)	+ (10-<25)
CCOc1ncccc1C1(NCc2ccc(N3CCNCC3)cc2)C(=O)N(S(=O)(=O)c2ccc(OC)cc2OC)c2ccc(C#N)cc21 (stereo not drawn) [Example 29, 1-(2,4-Dimethoxyphenylsulfonyl)-3-(2-ethoxypyridin-3-yl)-2-oxo-3-(4-piperazin-1-yl-benzylamino)-2,3-dihydro-1H-indole-5-carbonitrile]	1 to 10 nM	+ (10-<25)	++ (25-75)
CCOc1ncccc1C1(Nc2ccc(N3CCN(C)CC3)cc2)C(=O)N(S(=O)(=O)c2ccc(OC)cc2)c2cc(F)c(C#N)cc21 (stereo not drawn) [Example 59, 3-(2-Ethoxypyridin-3-yl)-6-fluoro-1-(4-methoxyphenylsulfonyl)-3-[4-(4-methylpiperazin-1-yl)phenylamino]-2-oxo-2,3-dihydro-1H-indole-5-carbonitrile]	1 to 10 nM	+++ (>75)	++ (25-75)
CCOc1ncccc1C1(Nc2ccc(CN3CCN(C)CC3)cc2)C(=O)N(S(=O)(=O)c2ccc(OC)cc2)c2ccc(C#N)cc21 (stereo not drawn) [Example 75, 3-(2-Ethoxypyridin-3-yl)-1-(4-methoxyphenylsulfonyl)-3-[4-(4-methylpiperazin-1-ylmethyl)-phenylamino]-2-oxo-2,3-dihydro-1H-indole-5-carbonitrile]	10 to 100 nM	+++ (>75)	++ (25-75)
CCOc1ncccc1C1(Nc2ccc(N3CCN(C)CC3)cc2)C(=O)N(S(=O)(=O)c2ccc(OC)cc2)c2ccc(I)cc21 (stereo not drawn) [Example 50, 3-(2-Ethoxypyridin-3-yl)-5-iodo-1-(4-methoxyphenylsulfonyl)-3-[4-(4-methylpiperazin-1-yl)-phenylamino]-1,3-dihydroindol-2-one]	1 to 10 nM	+++ (>75)	+ (10-<25)
CCN1CCN(c2ccc(NC3(c4cccnc4OCC(F)F)C(=O)N(S(=O)(=O)c4ccc(OC)cc4)c4ccc(C#N)cc43)cc2)CC1 (stereo not drawn) [Example 79, 3-[4-(4-Ethylpiperazin-1-yl)phenylamino]-1-(4-methoxyphenylsulfonyl)-3-(2-(2,2-difluoroethoxy)pyridin-3-yl)-2-oxo-2,3-dihydro-1H-indole-5-carbonitrile]	10 to 100 nM	+++ (>75)	++ (25-75)
CCOc1ncccc1C1(NCc2cccc(N3CCN(C)CC3)c2)C(=O)N(S(=O)(=O)c2ccc(OC)cc2)c2ccc(C#N)cc21 (stereo not drawn) [Example 43, 3-(2-Ethoxypyridin-3-yl)-1-(4-methoxyphenylsulfonyl)-3-[3-(4-methylpiperazin-1-yl)-benzylamino]-2-oxo-2,3-dihydro-1H-indole-5-carbonitrile]	1 to 10 nM	+ (10-<25)	+++ (>75)
CCOc1ncccc1C1(NC(=O)c2ccc(N3CCN(C)CC3)cc2)C(=O)N(S(=O)(=O)c2ccc(OC)cc2OC)c2ccc(C#N)cc21 (stereo not drawn) [Example 6, N-[5-Cyano-1-(2,4-dimethoxyphenylsulfonyl)-3-(2-ethoxypyridin-3-yl)-2-oxo-2,3-dihydro-1H-indol-3-yl]-4-(4-methylpiperazin-1-yl)benzamide]	1 to 10 nM	++ (25-75)	+++ (>75)
CCOc1ncccc1C1(OC(=O)c2ccc(N3CCN(C)CC3)cc2)C(=O)N(S(=O)(=O)c2ccc(OC)cc2OC)c2ccc(C#N)cc21 (stereo not drawn) [Example 3, 5-Cyano-1-(2,4-dimethoxyphenylsulfonyl)-3-(2-ethoxypyridin-3-yl)-2-oxo-2,3-dihydro-1H-indol-3-yl 4-(4-methylpiperazin-1-yl)benzoate]	1 to 10 nM	+ (10-<25)	+++ (>75)
CCOc1ncccc1C1(Nc2ccc(N3CCN(CC)CC3)cc2)C(=O)N(S(=O)(=O)c2ccc(OC)cc2)c2ccc(C#N)cc21 (stereo not drawn) [Example 57, 3-(2-Ethoxypyridin-3-yl)-3-[4-(4-ethylpiperazin-1-yl)phenylamino]-1-(4-methoxyphenylsulfonyl)-2-oxo-2,3-dihydro-1H-indole-5-carbonitrile]	10 to 100 nM	+++ (>75)	++ (25-75)
CCOc1ccccc1C1(NCc2ccc(N3CCN(C)CC3)cc2)C(=O)N(S(=O)(=O)c2ccc(OC)cc2)c2ccc(C#N)cc21 (stereo not drawn) [Example 37, 3-(2-Ethoxyphenyl)-1-(4-methoxyphenylsulfonyl)-3-[4-(4-methylpiperazin-1-yl)-benzylamino]-2-oxo-2,3-dihydro-1H-indole-5-carbonitrile]	1 to 10 nM	+++ (>75)	++ (25-75)
CCOc1ncccc1C1(NCc2ccc(N3CCNCC3)cc2)C(=O)N(S(=O)(=O)c2ccc(OC)cc2)c2ccc(C#N)cc21 (stereo not drawn) [Example 30, 3-(2-Ethoxypyridin-3-yl)-1-(4-methoxyphenylsulfonyl)-2-oxo-3-(4-piperazin-1-yl-benzylamino)-2,3-dihydro-1H-indole-5-carbonitrile]	1 to 10 nM	+++ (>75)	+++ (>75)
CCOc1ncccc1C1(NC(=O)c2ccc(N3CCN(C)CC3)cc2)C(=O)N(S(=O)(=O)c2ccc(OC)cc2)c2ccc(C#N)cc21 (stereo not drawn) [Example 4, N-[5-Cyano-3-(2-ethoxypyridin-3-yl)-1-(4-methoxyphenylsulfonyl)-2-oxo-2,3-dihydro-1H-indol-3-yl]-4-(4-methylpiperazin-1-yl)benzamide]	1 to 10 nM	++ (25-75)	+++ (>75)
